Experimental data published in patent US10060189B2, “Hexadecene synthetic drilling fluid with improved environmental properties” (priority 2014, dated 2018).

Key:
[1] = Kinematic viscosity (ASTM D445-06); format: physicochemical
Experimental: The phrase “kinematic viscosity” refers to a measurement of the resistance to the flow of a fluid. Many base oils, drilling fluid compositions made from them, and the correct operation of equipment depends upon the appropriate viscosity of the fluid being used. Kinematic viscosity is determined by ASTM D445-06. The results are reported in mm^2/s or centistoke. The term “centistoke,” abbreviated “cSt,” is a unit for kinematic viscosity of a fluid (e.g., a drilling fluid), wherein 1 centistoke equals 1 millimeter squared per second (1 cSt=1 mm^2/s). It is also the ratio of the dynamic viscosity of a fluid to the fluid density. See, e.g., ASTM Standard Guide and Test Methods D 2270-04, D 445-06, D 6074, and D 2983.

Flash point = format: physicochemical
Density = format: physicochemical
[2] = 275-day anaerobic biodegradation test (modified ISO 11734)
Excerpt: The term “biodegradation rate” as used herein for drilling fluids and drill cuttings is in connection with the method for performing the 275-day anaerobic biodegradation test and is defined in Federal Register, Part IV Environmental Protection Agency, 40 CFR Parts 9 and […] entitled “Effluent Limitations Guidelines and New Source Performance Standards for the Oil and Gas Extraction Point Source Category”, Fed. Reg. Vol. 66, No. 14, Jan. 22, 2001, Appendix 4 to Subpart A of Part 435, incorporated herein by reference. The 275-day anaerobic biodegradation test described in Appendix 4 to Subpart A of Part 435 is based on a modification of ISO Standard No. 11734:1995 (also incorporated herein by reference) for use in a marine environment.

Pour point (ASTM D97) = format: physicochemical
Excerpt: The phrase “pour point” refers to the lowest temperature at which a fluid will pour or flow. (See, e.g., ASTM International Standard Test Method D97). The results are reported in degrees Celsius. Many commercial base oils have specifications for pour point. When base oils have low pour points, the base oils are also likely to have other good low temperature properties, such as low cloud point, and low cold flow viscosity.

Leptocheirus plumulosus = test: 10-day sediment toxicity test (EPA Method 1644); format: in vivo
Excerpt: The term “sediment toxicity” as used herein for drilling fluids and drill cuttings refers to EPA Method 1644: “Method for Conducting a Sediment Toxicity Test with Leptocheirus plumulosus and Non-Aqueous Drilling Fluids or Synthetic-Based Drilling Muds” and sediment preparation procedures specified in EPA Method 1646. EPA Method 1644 is published in “Analytic Methods for the Oil and Gas Extraction Point Source Category.” The 10-day Leptocheirus plumulosus toxicity test characterizing the sediment toxicity according to BAT (“Best Available Technology Economically Achievable) effluent limitations and NSPS (“New Source Performance Standards”) means the concentration (milligrams/kilogram dry sediment) of the base fluid in sediment that is lethal to 50 percent of the Leptocheirus plumulosus test organisms exposed to that concentration of the base fluids after ten days of constant exposure. The test is defined in ASTM Standard No. E1367-03 (2008) which is incorporated herein by reference.

For `C=CCCCCCCCCCCCCCC` [1-hexadecene], the “Kinematic Viscosity at 40° C.” value [1] was 2.4 cSt, the “Flash Point” value (Flash point) was 125 °C and the Density (Density) was 0.785 g/cc. The “275 Day Anaerobic Biodegradation % Compliance Ratio (Ref Fluid/Test Fluid)” value ([2]; 275 day, ratio reference fluid/test fluid, <1 passes) was 0.8, the “EPA requirement in the 275 day anaerobic biodegradation test” value ([2]; versus C1618 IO standard) was “consistently passes” and the “Pour Point” value (Pour point (ASTM D97); Table 2 and text) was 4 °C. The “Pour Point” value (Pour point (ASTM D97); Table 2 and text, listed as 1-hexadecene) was “+4 °C”, the “Pour Point” value (Pour point (ASTM D97); Table 3, blends by ratio C16 unbranched isomerized olefin to 1-hexadecene) was 4 deg C and the “Depression in Pour Point Compared to 1-hexadecene” value (Pour point (ASTM D97); Table 3, compared to 1-hexadecene) was 0 deg C. For the same molecule, the “Sediment Toxicity L. plumulosus 10 day LC50 Compliance Ratio (Ref Fluid/Test Fluid)” value (Leptocheirus plumulosus; 10 day, ratio reference fluid/test fluid, <1 passes) was 0.35 and the “EPA requirement in the 10-day sediment toxicity test” value (Leptocheirus plumulosus; in vivo) was “consistently passes”.
